Measurements taken from patent publication US11247972B2, “Compositions and methods for treating toxoplasmosis, cryptosporidiosis, and other apicomplexan protozoan related diseases” (University of Washington through its Center for …, priority 2010, dated 2022).
“Also recorded” adds a separate entry of the source.

How the values were obtained:
[1] = target: PfCDPK1 (Plasmodium falciparum (isolate 3D7), UniProt P62344); assay: biochemical; conditions: read-out: PfCDPK1 (% inhibition @ 3 uM)
[2] = target: PfCDPK4 (Plasmodium falciparum (isolate 3D7), UniProt Q8IBS5); assay: biochemical; conditions: read-out: PfCDPK4 (% inhibition @ 3 uM)
[3] = target: CpCDPK1 (Cryptosporidium parvum (strain Iowa II), UniProt A3FQ16); assay type: biochemical
[4] = system: C. parvum; assay: Immunosuppressed (SCID-beige) mouse C. parvum model, stool qRT-PCR; assay type: in vivo, Cryptosporidium parvum; conditions: oral gavage once a day, days 3-7 and 10-14; 29 and 150 50 mg/kg/day, Paromomycin 2 g/kg/day
Protocol: Shown are mean of the parasite numbers detected in 25 mg of stool from each mouse, by qRT-PCR.

[5] = target: TgCDPK1 (Toxoplasma gondii, UniProt Q9BJF5); assay type: biochemical
[6] = system: C. parvum; assay: C. parvum infection of HCT-8 cells (rRNA reverse transcriptase real time PCR); assay type: cell-based, Cryptosporidium parvum; conditions: inhibitor at time of infection and 1 hour after infection
[7] = system: P. falciparum; assay: P. falciparum NF54 gametocyte exflagellation with compound in blood; assay type: cell-based, Plasmodium falciparum
[8] = system: P. berghei; design: species or system Plasmodium berghei; conditions: in vivo
[9] = system: human lymphocyte (CRL8155); assay: Growth inhibition / toxicity in human cell line CRL8155; conditions: CRL8155, 10 μM
[10] = system: human promyelocytic leukemia (HL-60); assay: Growth inhibition / toxicity in human cell line HL-60; conditions: HL60, 10 μM
[11] = system: glioma derived (SF539); assay: Growth inhibition / toxicity in human cell line SF539
[12] = target: ABL (Homo sapiens (Human), UniProt P00519)
[13] = target: SRC (Homo sapiens (Human), UniProt P12931); assay: Tyrosine kinase SRC counter-screen; assay type: biochemical
[14] = system: P. berghei expressing PfCDPK4-2x-myc; design: species or system Plasmodium berghei; conditions: in vivo

Row | SMILES | inhibition at 3 µM [1] | inhibition at 3 µM [2] | other results
1 | COc1ccc(-c2nn(C(C)C)c3ncnc(N)c23)cc1OC [Compound 7k, 3-(3,4-dimethoxyphenyl)-1-isopropyl-1H-pyrazolo[3,4-d]pyrimidin-4-amine] | 93% | 43% | inhibition of CpCDPK1 (in words) [3]: potent against both enzymes
2 | NC[C@@H]1O[C@H](O[C@H]2[C@@H](O)[C@H](O[C@@H]3[C@@H](O)[C@H](N)C[C@H](N)[C@H]3O[C@H]3O[C@H](CO)[C@@H](O)[C@H](O)[C@H]3N)O[C@@H]2CO)[C@H](N)[C@@H](O)[C@@H]1O [Paromomycin, reference compound] |  |  | parasites in stool at the end of treatment [4]: not detected; rebound of parasite burden after treatment [4]: quickly rebounded
3 | CC(C)c1ccc(-c2nn(C(C)C)c3ncnc(N)c23)cc1 [Compound 7d, 1-isopropyl-3-(4-isopropylphenyl)-1H-pyrazolo[3,4-d]pyrimidin-4-amine] | 90% | 80% | relative potency TgCDPK1 versus CpCDPK1 (in words) [5]: more potent against TgCDPK1 than CpCDPK1
4 | CC(C)(C)n1nc(-c2ccc3ccccc3c2)c2c(N)ncnc21 [Compound 2, 1-tert-butyl-3-(naphthalen-2-yl)-1H-pyrazolo[3,4-d]pyrimidin-4-amine] |  |  | inhibition of TgCDPK1 (in words) [5]: most potent inhibitor; C. parvum parasite levels / proliferation in HCT-8 cells [6]: most potent effect; inhibition of CpCDPK1 (in words) [3]: most potent inhibitor
5 | COc1cc(-c2nn(C(C)C)c3ncnc(N)c23)cc(OC)c1OC [Compound 7l, 1-isopropyl-3-(3,4,5-trimethoxyphenyl)-1H-pyrazolo[3,4-d]pyrimidin-4-amine] |  |  | relative potency TgCDPK1 versus CpCDPK1 (in words) [5]: equipotent or slightly selective for CpCDPK1
6 | CCOc1ccc2cc(-c3nn(CC4CCN(C)CC4)c4ncnc(N)c34)ccc2c1 [Compound 150, 3-(6-ethoxynaphthalen-2-yl)-1-((1-methylpiperidin-4-yl)methyl)-1H-pyrazolo[3,4-d]pyrimidin-4-amine] |  |  | EC50 ([7]; Plasmodium falciparum, read-out: Parasite Proliferation Assay EC50 P. falciparum Exflaggelation): 50 nM; parasites in stool at the end of treatment [4]: not detected; rebound of parasite burden after treatment [4]: not
7 | CC(C)n1nc(-c2cccc(Cl)c2)c2c(N)ncnc21 [Compound 7b, 3-(3-chlorophenyl)-1-isopropyl-1H-pyrazolo[3,4-d]pyrimidin-4-amine] | 72% | 85% | relative potency TgCDPK1 versus CpCDPK1 (in words) [5]: more potent against TgCDPK1 than CpCDPK1
8 | COc1ccc(-c2nn(C(C)C)c3ncnc(N)c23)cc1C [Compound 7m, 1-isopropyl-3-(4-methoxy-3-methylphenyl)-1H-pyrazolo[3,4-d]pyrimidin-4-amine] | 77% | 85% | inhibition of CpCDPK1 (in words) [3]: potent against both enzymes
9 | CC(C)(C)n1nc(-c2ccc3ccccc3c2)c2c(N)ncnc21 [NA-PP2, reference compound] |  |  | formation of oocysts in A. stephensi [8]: hundreds of oocysts per mosquito
10 | CC(C)n1nc(-c2cc3c(Cl)cccc3[nH]2)c2c(N)ncnc21 [Compound 26, 3-(4-chloro-1H-indol-2-yl)-1-isopropyl-1H-pyrazolo[3,4-d]pyrimidin-4-amine] |  | 93% | Cell Toxicity CRL8155, % at 10 μM [9]: 38% toxicity at; Cell Toxicity HL60, % at 10 μM [10]: 45% toxicity at
11 | Cc1cc(-c2nn(C(C)C)c3ncnc(N)c23)ccc1F [Compound 7i, 3-(4-fluoro-3-methylphenyl)-1-isopropyl-1H-pyrazolo[3,4-d]pyrimidin-4-amine] | 79% | 79% | inhibition of CpCDPK1 (in words) [3]: potent against both enzymes
12 | Nc1ncnc2c1c(-c1ccc3cc(OCc4ccccc4)ccc3c1)nn2CC1CCNCC1 [Compound 34, 3-(6-(benzyloxy)naphthalen-2-yl)-1-(piperidin-4-ylmethyl)-1H-pyrazolo[3,4-d]pyrimidin-4-amine] |  | 97% | Cell Toxicity LD50 SF539 [11]: 6 µM
13 | CC(C)n1nc(-c2ccc(Cl)cc2)c2c(N)ncnc21 [Compound 7a, 3-(4-chlorophenyl)-1-isopropyl-1H-pyrazolo[3,4-d]pyrimidin-4-amine] | 97% | 86% | relative potency TgCDPK1 versus CpCDPK1 (in words) [5]: more potent against TgCDPK1 than CpCDPK1
14 | Nc1ncnc2c1c(Cc1cccc3ccccc13)nn2CC1CCNCC1 [Compound 5h, 3-(naphthalen-1-ylmethyl)-1-(piperidin-4-ylmethyl)-1H-pyrazolo[3,4-d]pyrimidin-4-amine] | 66% | 95% | inhibition of ABL (in words) [12]: reduced potency; inhibition of SRC (in words) [13]: reduced potency
15 | CSc1cccc(-c2nn(C(C)C)c3ncnc(N)c23)c1 [Compound 7ab, 1-isopropyl-3-(3-(methylthio)phenyl)-1H-pyrazolo[3,4-d]pyrimidin-4-amine] |  |  | relative potency TgCDPK1 versus CpCDPK1 (in words) [5]: more potent against TgCDPK1 than CpCDPK1
16 | CC(C)n1nc(-c2ccc(Cl)c(Cl)c2)c2c(N)ncnc21 [Compound 7c, 3-(3,4-dichlorophenyl)-1-isopropyl-1H-pyrazolo[3,4-d]pyrimidin-4-amine] | 93% | 97% | inhibition of CpCDPK1 (in words) [3]: potent against both enzymes
17 | Cc1cccc2[nH]c(-c3nn(C(C)C)c4ncnc(N)c34)cc12 [Compound 25, 1-isopropyl-3-(4-methyl-1H-indol-2-yl)-1H-pyrazolo[3,4-d]pyrimidin-4-amine] |  | 92% | Cell Toxicity CRL8155, % at 10 μM [9]: 38% toxicity at; Cell Toxicity HL60, % at 10 μM [10]: 47% toxicity at
18 | CC(C)(C)n1nc(-c2ccc(NC(=O)C3CCCCC3)cc2)c2c(N)ncnc21 [Compound 64, N-(4-(4-amino-1-tert-butyl-1H-pyrazolo[3,4-d]pyrimidin-3-yl)phenyl)cyclohexanecarboxamide] | 101% | 66% | 
19 | CC(C)(C)n1nc(Br)c2c(N)ncnc21 [Compound 129] | 79% | 9% | 
20 | CC(C)n1nc(-c2cnc3ccccc3c2)c2c(N)ncnc21 [Compound 7t, 1-isopropyl-3-(quinolin-3-yl)-1H-pyrazolo[3,4-d]pyrimidin-4-amine] | 65% | 83% | inhibition of TgCDPK1 (in words) [5]: potent inhibitors of both enzymes; inhibition of CpCDPK1 (in words) [3]: potent inhibitors of both enzymes
21 | CC(=O)N1CCC(CCn2nc(Cc3cccc4ccccc34)c3c(N)ncnc32)CC1 [Compound 5l, 1-(4-(2-(4-amino-3-(naphthalen-1-ylmethyl)-1H-pyrazolo[3,4-d]pyrimidin-1-yl)ethyl)piperidin-1-yl)ethanone] | 51% | 41% | 
22 | Nc1ncnc2c1c(-c1ccc3cc(O)ccc3c1)nn2CC1CCNCC1 [Compound 119] | 102% | 101% | 
23 | CC(C)n1nc(-c2ccc3cc(OCc4cccc(Cl)c4)ccc3c2)c2c(N)ncnc21 [Compound 47, 3-(6-(3-chlorobenzyloxy)naphthalen-2-yl)-1-isopropyl-1H-pyrazolo[3,4-d]pyrimidin-4-amine] | 91% | 51% | 
24 | CC(C)CC(=O)Nc1ccc(-c2nn(C(C)(C)C)c3ncnc(N)c23)cc1 [Compound 62, N-(4-(4-amino-1-tert-butyl-1H-pyrazolo[3,4-d]pyrimidin-3-yl)phenyl)-3-methylbutanamide] | 102% | 95% | 
25 | CC(C)COc1ccc2cc(-c3nn(C(C)C)c4ncnc(N)c34)ccc2c1 [Compound 43, 3-(6-isobutoxynaphthalen-2-yl)-1-isopropyl-1H-pyrazolo[3,4-d]pyrimidin-4-amine] | 100% | 78% | 
26 | Nc1ncnc2c1c(-c1ccc3ncccc3c1)nn2CC1CCNCC1 [Compound 125] | 89% | 93% | 
27 | NC(=O)Cn1nc(Cc2cccc3ccccc23)c2c(N)ncnc21 [Compound 5c, 2-(4-amino-3-(naphthalen-1-ylmethyl)-1H-pyrazolo[3,4-d]pyrimidin-1-yl)acetamide] | 45% | 23% | 
28 | CCOc1ccc2cc(-c3nn(CC4CCNCC4)c4ncnc(N)c34)ccc2c1 [Compound 29, 3-(6-ethoxynaphthalen-2-yl)-1-(piperidin-4-ylmethyl)-1H-pyrazolo[3,4-d]pyrimidin-4-amine] | 97% |  | P. falciparum exflagellation ([7]; 1 and 3 μM): complete suppression; also recorded: suppressed completely; also recorded: prevented the exflagellation of microgametes; duration of complete suppression of male gametocyte differentiation to exflagellating units [14]: 14 h; exflagellation in blood samples from treated mice [14]: some exflagellation was observed; formation of oocysts in A. stephensi [8]: completely blocked; parasites in stool at the end of treatment [4]: not detected; rebound of parasite burden after treatment [4]: slowly
29 | CC(C)(C)c1nc(-c2cnc3ccccc3c2)c2c(N)nccn12 [Compound 72, 3-tert-butyl-1-(quinolin-3-yl)imidazo[1,5-a]pyrazin-8-amine] | 94% | 91% | 
